The source of these data is patent publication US11306121B2, “Composition for muscle relaxation” (CAREGEN CO., LTD., priority 2018, dated 2022).

The conditions of series [1]: 1,000 ppm in sterile distilled water, warmed at 121° C., maximum warming time of 30 minutes.
The conditions of series [2]: 1,000 ppm in sterile distilled water, stored at 45° C., maximum observation time of 75 days.

SMILES strings stand for the structures. Where two headings read alike, the source gives them in different places. Residues, ends and D or L forms follow the SMILES beside them.

For the compound `CC[C@H](C)[C@H](NC(=O)[C@H](CC(C)C)NC(=O)[C@H](Cc1ccccc1)NC(=O)[C@@H](N)CCCCN)C(=O)N[C@@H](CCCCN)C(=O)O` [peptide of the present invention, KFLIK] (H-KFLIK-OH; N-terminus and C-terminus assumed), the “stability of the peptide (HPLC assay)” value in series [1] and in series [2] was “maintained” throughout.
